# Experimental data reported in patent US12187705B2, “Heteroaryl-triazole and heteroaryl-tetrazole compounds as pesticides” (Bayer Aktiengesellschaft, priority 2018, dated 2025).
# Columns and labels:
# Assay type in all cases: in vivo
# [1] = system: Ctenocephalides felis; assay: Ctenocephalides felis oral test; details: Ctenocephalides felis, in Bos taurus, po, 48 h
# Procedure: Ctenocephalides felis—Oral Test
# (§1) Solvent: dimethyl sulfoxide
# To produce a suitable preparation of active compound, 10 mg of active compound are dissolved in 0.5 ml solvent, and the concentrate is diluted with cattle blood to the desired concentration.
# Approximately 20 adult unfed cat fleas (Ctenocephalides felis) are placed in flea chambers. The blood chamber, sealed with parafilm on the bottom, are filled with cattle blood supplied with compound solution and placed on the gauze covered top of the flea chamber, so that the fleas are able to suck the blood. The blood chamber is heated to 37° C. whereas the flea chamber is kept at room temperature.
# After 2 days mortality in % is determined. 100% means all the fleas have been killed; 0% means none of the fleas have been killed.
# [2] = system: Myzus persicae; assay: Myzus persicae oral test; details: 120 h
# Procedure: To produce a suitable preparation of active compound, 1 part by weight of active compound is mixed with the stated amount of solvent, and the concentrate is diluted with water to the desired concentration.
# 50 μl compound solution is filled in microtiter plates and 150 μl IPL41 insect medium (33%+15% sugar) is added to obtain a total volume of 200 μl per well. Afterwards the plates are sealed with parafilm through which a mixed population of the green peach aphid (Myzus persicae) can suck on the compound preparation.
# After 5 days mortality in % is determined. 100% means all aphids have been killed and 0% means none of the aphids have been killed.
# [3] = system: Ctenocephalides felis; assay: Ctenocephalides felis in-vitro contact test adult cat flea; details: 5 μg/cm^2 (=500 g/ha), after 48 hours; for pest or weed control at 5 µg/cm2, 5 µg/cm2: Ctenocephalides felis, read-out: efficacy (fleas dead or moribund)
# Procedure: Ctenocephalides felis—In-Vitro Contact Test Adult Cat Flea
# 9 mg compound is solved in 1 ml acetone and diluted with acetone to the desired concentration. 250 μl of the test solution is filled in 25 ml glass test tubes and homogeneously distributed on the inner walls by rotation and tilting on a shaking device (2 h at 30 rpm). With a compound concentration of 900 ppm, an inner surface of 44.7 cm^2 and a homogeneous distribution, a dose of 5 μg/cm^2 is achieved.
# After the solvent has evaporated, each test tube is filled with 5-10 adult cat fleas (Ctenocephalides felis), closed with a perforated lid and incubated in a lying position at room temperature and relative humidity. After 48 hours efficacy is determined. The fleas are patted on the ground of the tubes and are incubated on a heating plate at 45-50° C. for at most 5 minutes. Immotile or uncoordinated moving fleas, which are not able to escape the heat by climbing upwards, are marked as dead or moribund.
# An efficacy of 100% means all fleas are dead or moribund; 0% means no fleas are dead or moribund.
# [4] = system: Nezara viridula; assay: Nezara viridula spray test; details: in Hordeum vulgare, 96 h
# Procedure: Nezara viridula—Spray Test
# (§2) To produce a suitable preparation of active compound, 1 part by weight of active compound is mixed with the stated amount of solvent, and the concentrate is diluted with water, containing an emulsifier concentration of 1000 ppm, to the desired concentration. Further test concentrations are prepared by dilution with emulsifier containing water.
# Barley plants (Hordeum vulgare) infested with larvae of the southern green stink bug (Nezara viridula) are sprayed with a test solution containing the desired concentration of the active ingredient.
# After 4 days mortality in % is determined. 100% means all the stink bugs have been killed; 0% means none of the stink bugs have been killed.
# [5] = system: Diabrotica balteata; assay: Diabrotica balteata spray test; details: 160 μg/well, wheat seeds, after 7 days; for pest or weed control at 160 µg/disc, 160 µg/well: Diabrotica balteata, 168 h, read-out: efficacy (seedlings grown)
# Procedure: Diabrotica balteata—Spray Test
# as §2
# Soaked wheat seeds (Triticum aestivum) are placed in a multiple well plate filled with agar and some water and are incubated for 1 day to germinate (5 seeds per well). The germinated wheat seeds are sprayed with a test solution containing the desired concentration of the active ingredient. Afterwards each unit is infected with 10-20 larvae of the banded cucumber beetle (Diabrotica balteata).
# After 7 days efficacy in % is determined. 100% means all the seedlings have grown up like in the untreated, uninfected control; 0% means none of the seedlings have grown.
# [6] = system: Aedes aegypti strain MONHEIM; assay: Aedes aegypti test (AEDSAE surface treatment & contact assay); details: 24 hours after contact, read-out: efficacy (mortality); for mortality at 20 mg/m2: surface concentration 20 mg/m^2, 30 minutes exposure; for mortality at 4 mg/m2: surface concentration 4 mg/m^2, 30 minutes exposure
# Procedure: Aedes aegypti Test (AEDSAE Surface Treatment & Contact Assay)
# (§3) Solvent: Aceton+2000 ppm rapeseed oil methyl ester (RME)
# In order to produce a sufficient, active ingredient containing solution it is necessary to solve the test-compound in the solvent-mix (Acetone at 2 mg/ml/RME 2000 ppm). This solution is pipetted onto a glazed tile and after evaporation of the Acetone, adult mosquitoes of the species Aedes aegypti strain MONHEIM are placed onto the dried surface. The exposure time is 30 minutes.
# (§4) Mortality in percent (%) is determined 24 hours after contact to the treated surface. 100% mortality means that all test-insects are dead, whereas 0% means that not a single insect died.
# [7] = system: Boophilus microplus; assay: Boophilus microplus injection test; details: 20 μg/animal, egg deposition after 7 days; for pest or weed control at 0.02 mg: Rhipicephalus microplus, 168 h, read-out: efficacy (infertile eggs)
# Procedure: Boophilus microplus—Injection Test
# as §1
# To produce a suitable preparation of active compound, 10 mg of active compound are dissolved in 0.5 ml solvent, and the concentrate is diluted with solvent to the desired concentration.
# Five adult engorged female ticks (Boophilus microplus) are injected with 1 μl compound solution into the abdomen. The ticks are transferred into replica plates and incubated in a climate chamber.
# After 7 days egg deposition of fertile eggs is monitored. Eggs where fertility is not visible are stored in a climate chamber till hatching after about 42 days. An efficacy of 100% means all eggs are infertile; 0% means all eggs are fertile.
# [8] = system: Culex quinquefasciatus strain P00; assay: Culex quinquefasciatus test (CULXFA surface treatment & contact assay); details: 24 hours after contact, read-out: efficacy (mortality); for mortality at 4 mg/m2: surface concentration 4 mg/m^2, 30 minutes exposure; for mortality at 20 mg/m2: surface concentration 20 mg/m^2, 30 minutes exposure
# Procedure: Culex quinquefasciatus Test (CULXFA Surface Treatment & Contact Assay)
# as §3
# In order to produce a sufficient, active ingredient containing solution it is necessary to solve the test-compound in the solvent-mix (Acetone at 2 mg/ml/RME 2000 ppm). This solution is pipetted onto a glazed tile and after evaporation of the Acetone, adult mosquitoes of the species Culex quinquefasciatus strain P00 are placed onto the dried surface. The exposure time is 30 minutes.
# as §4
# [9] = system: Spodoptera frugiperda; assay: Spodoptera frugiperda spray test; details: in Zea mays, 168 h
# Procedure: Spodoptera frugiperda—Spray Test
# To produce a suitable preparation of active compound, 1 part by weight of active compound is mixed with the stated amount of solvents and is diluted with water, containing an emulsifier concentration of 1000 ppm, to the desired concentration. Further test concentrations are prepared by dilution with emulsifier containing water.
# Maize (Zea mays) leaf sections are sprayed with a preparation of the active ingredient of the desired concentration. Once dry, the leaf sections are infested with fall armyworm larvae (Spodoptera frugiperda).
# After 7 days mortality in % is determined. 100% means all caterpillars have been killed and 0% means none of the caterpillars have been killed.
structure (smiles),measurement,setting,value
CC(c1ncnn1-c1ncccn1)N(CC1CC1)C(=O)c1cc(Cl)cc(C(=O)NC2CC2)c1 (stereo not shown) [Example I-007],mortality at 100 ppm,[1],100%
same,mortality at 4 ppm,[2],100%
same,mortality at 20 ppm,[2],100%
same,"pest or weed control at 5 µg/cm2, 5 µg/cm2",[3],100%
same,mortality at 500 g/ha,[4],100%
same,"pest or weed control at 160 µg/disc, 160 µg/well",[5],100%
CC(NC(=O)c1cc(Cl)cc(-n2cccn2)c1)c1ncnn1-c1ncccn1 (stereo not shown) [Example I-048],mortality at 100 ppm,[1],100%
same,mortality at 4 ppm,[2],100%
same,mortality at 20 mg/m2,[6],90 to 100%
same,pest or weed control at 0.02 mg,[7],100%
same,"pest or weed control at 160 µg/disc, 160 µg/well",[5],100%
"C[C@H](NC(=O)c1cc(C(F)(F)F)nn1-c1ccc(F)cc1)c1ncnn1-c1ncccn1 [Example I-052, 1-(4-fluorophenyl)-N-{(1S)-1-[1-(pyrimidin-2-yl)-1H-1,2,4-triazol-5-yl]ethyl}-3-(trifluoromethyl)-1H-pyrazole-5-carboxamide]",mortality at 100 ppm,[1],100%
same,pest or weed control at 0.02 mg,[7],100%
CC(NC(=O)c1cc(Cl)cc(C2CC2)c1)c1ncnn1-c1ccc(C#N)cn1 (stereo not shown) [Example I-054],efficacy (fleas dead or moribund),[3],80%
same,efficacy (seedlings grown),[5],100%
C[C@H](NC(=O)c1cc(Cl)cc(S(C)(=O)=O)c1)c1ncnn1-c1ccc(OC(F)F)cn1 [Example I-063],mortality at 4 mg/m2,[8],80 to 100%
same,mortality at 20 mg/m2,[8],80 to 100%
same,mortality at 500 g/ha,[9],100%
same,mortality at 4 ppm,[2],100%
same,mortality at 4 mg/m2,[6],80 to 100%
same,mortality at 20 mg/m2,[6],90 to 100%
same,mortality at 500 g/ha,[4],100%
same,"pest or weed control at 160 µg/disc, 160 µg/well",[5],100%
C[C@H](NC(=O)c1cc(Cl)cc(S(C)(=O)=O)c1)c1ncnn1-c1ccc(SC(F)(F)F)cn1 [Example I-064],mortality at 500 g/ha,[9],100%
same,"pest or weed control at 160 µg/disc, 160 µg/well",[5],100%
CC(NC(=O)c1cc(Cl)cc(S(=O)(=O)C(F)(F)F)c1)c1ncnn1-c1ncc(Cl)cn1 (stereo not shown) [Example I-069],efficacy (fleas dead or moribund),[3],100%
same,efficacy (infertile eggs),[7],100%
same,efficacy (seedlings grown),[5],100%
CC(NC(=O)c1cc(Cl)cc(S(=O)(=O)C(F)(F)F)c1)c1ncnn1-c1ccc(C(F)(F)F)cn1 (stereo not shown) [Example I-072],efficacy (infertile eggs),[7],100%
same,efficacy (seedlings grown),[5],100%
CC(NC(=O)c1cc(Cl)cc(S(=O)(=O)C(F)(F)F)c1)c1ncnn1-c1ccc(Cl)cn1 (stereo not shown) [Example I-073],efficacy (fleas dead or moribund),[3],90%
same,efficacy (infertile eggs),[7],100%
same,efficacy (seedlings grown),[5],100%
CC(NC(=O)c1cc(Cl)cc(S(=O)(=O)C(F)(F)F)c1)c1ncnn1-c1cc(C#N)ccn1 (stereo not shown) [Example I-075],efficacy (fleas dead or moribund),[3],90%
same,efficacy (infertile eggs),[7],100%
same,efficacy (seedlings grown),[5],100%
C[C@@H](NC(=O)c1cc(Cl)cc(S(=O)(=O)C(F)(F)F)c1)c1ncnn1-c1ccnc(Cl)c1 [Example I-076],mortality at 100 ppm,[1],100%
same,pest or weed control at 0.02 mg,[7],100%
C[C@@H](NC(=O)c1cc(Cl)cc(S(=O)(=O)C(F)(F)F)c1)c1ncnn1-c1nccs1 [Example I-077],mortality at 500 g/ha,[9],100%
same,mortality at 100 ppm,[1],90%
same,mortality at 20 mg/m2,[6],90 to 100%
same,pest or weed control at 0.02 mg,[7],100%
same,"pest or weed control at 160 µg/disc, 160 µg/well",[5],100%
CC(NC(=O)c1cc(Cl)cc(S(=O)(=O)C(C)(C)C)c1)c1ncnn1-c1ncccn1 (stereo not shown) [Example I-080],efficacy (infertile eggs),[7],80%
C[C@@H](NC(=O)c1cc(Cl)cc(S(C)(=O)=O)c1)c1ncnn1-c1ccc(C(F)(F)F)cn1 [Example I-089],mortality at 4 mg/m2,[8],80 to 100%
same,mortality at 20 mg/m2,[8],80 to 100%
same,mortality at 500 g/ha,[9],100%
same,mortality at 100 ppm,[1],100%
same,"pest or weed control at 5 µg/cm2, 5 µg/cm2",[3],100%
same,mortality at 4 mg/m2,[6],80 to 100%
same,mortality at 20 mg/m2,[6],90 to 100%
same,mortality at 500 g/ha,[4],100%
same,"pest or weed control at 160 µg/disc, 160 µg/well",[5],100%
CC(NC(=O)c1cc(Cl)cc(-n2ccc(C(F)(F)F)n2)c1)c1ncnn1-c1ncccn1 (stereo not shown) [Example I-094],mortality at 500 g/ha,[9],83%
same,"pest or weed control at 160 µg/disc, 160 µg/well",[5],100%
CC(NC(=O)c1csc(Cl)c1)c1ncnn1-c1ncc(C(F)(F)F)cn1 (stereo not shown) [Example I-098],efficacy (fleas dead or moribund),[3],90%
same,efficacy (seedlings grown),[5],100%
C[C@@H](NC(=O)c1cc(Cl)cc(S(C)(=O)=O)c1)c1nc(C(F)(F)F)nn1-c1ccc(C#N)cn1 [Example I-110],mortality at 500 g/ha,[9],100%
same,mortality at 500 g/ha,[4],100%
C[C@@H](NC(=O)c1cc(F)cc(C2CC2)c1)c1ncnn1-c1ccc(C#N)cn1 [Example I-113],mortality at 500 g/ha,[9],100%
same,mortality at 500 g/ha,[4],90%
same,"pest or weed control at 160 µg/disc, 160 µg/well",[5],100%
C[C@@H](NC(=O)c1cc(-c2ccc(F)cc2)cc(C(F)(F)F)c1)c1ncnn1-c1ccc(C#N)cn1 [Example I-123],mortality at 500 g/ha,[9],100%
same,"pest or weed control at 160 µg/disc, 160 µg/well",[5],100%
